Values of other authors in paper PMC7926623 (Marine Drugs, 2021).

Tested on: rα6/α3β2β3 nAChR
Conditions: cited from earlier work

## α-Conotoxin TxIB
  IC50: 28.4 nM
